# The source made the active and inactive calls.
# Key:
# Large T antigen = Large T antigen (Simian virus 40, UniProt P03070); type: functional, Betapolyomavirus macacae;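 further: Confirmatory-stage PubChem screen for compounds that inhibit SV40 T antigen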
# [1] = inhibitors of intracellular T. cruzi replication, confirmation, NIH3T3 host cells, beta-gal luminescence (AID 2044); type: functional, cell-based;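 further: intracellular parasites grown in NIH/3T3 mouse fibroblasts as host cells; luminescent beta-galactosidase reporter signal from transgenic T. cruzi replicating inside host cells; inhibitors lower the luminescence signal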
# [2] = cytotoxicity toward NIH3T3 fibroblasts, dose response, counter-screen, cell-based, ATP luminescence, mouse fibroblasts (AID 2010); type: functional;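 further: cells exposed to compound for about 90 hours before reading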
# Cytochrome P450 2C19 = Cytochrome P450 2C19 (Homo sapiens, UniProt P33261); assay: Cytochrome panel assay with activity outcomes. Panel member name: p450-cyp2c19 Compounds with AC50 equal or less than 10 uM are considered active; type: functional
# Cytochrome P450 3A4 = Cytochrome P450 3A4 (Homo sapiens, UniProt P08684);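 further: CYP3A4 tested as one member of a cytochrome P450 panel screen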
# Cytochrome P450 2C9 = Cytochrome P450 2C9 (Homo sapiens, UniProt P11712)
# [3] = target: T1, Heat shock factor protein 1 (Mus musculus, UniProt P38532); assay: inhibition of MG132-induced HSE-luciferase signal, confirmation, cell-based, NIH3T3, luminescence, dose retest (AID 2382); type: functional;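 further: NIH3T3 fibroblasts with HSF1-driven luciferase reporter stressed by proteasome inhibitor MG132; luminescence from HSF1-driven luciferase expression after 8 hours of MG132 stress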
# T1 sequence (P38532 whole entry): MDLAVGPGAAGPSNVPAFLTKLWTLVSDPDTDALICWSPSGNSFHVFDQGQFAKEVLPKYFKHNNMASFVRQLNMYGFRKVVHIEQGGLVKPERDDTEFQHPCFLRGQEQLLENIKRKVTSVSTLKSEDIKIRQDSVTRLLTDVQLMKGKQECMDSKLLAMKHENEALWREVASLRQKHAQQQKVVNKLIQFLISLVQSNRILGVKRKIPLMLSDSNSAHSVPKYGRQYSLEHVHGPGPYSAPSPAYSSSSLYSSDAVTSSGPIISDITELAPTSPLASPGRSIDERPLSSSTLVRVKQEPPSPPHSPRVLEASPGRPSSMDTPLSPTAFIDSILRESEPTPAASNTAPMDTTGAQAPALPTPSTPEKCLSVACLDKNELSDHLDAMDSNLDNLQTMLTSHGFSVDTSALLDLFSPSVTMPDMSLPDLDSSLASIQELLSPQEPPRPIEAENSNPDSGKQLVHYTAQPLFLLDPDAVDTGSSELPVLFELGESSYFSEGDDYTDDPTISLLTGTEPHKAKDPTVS
# Cytochrome P450 2D6 = Cytochrome P450 2D6 (Homo sapiens, UniProt P10635);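 further: CYP2D6 member of a cytochrome P450 panel assay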
# INS1 = assay: beta cell apoptosis inhibitors, cytokine rescue, dose response, luminescence, retest (AID 449756); type: functional, cell-based; conditions: Rattus norvegicus;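 further: cell death triggered by IL-1 beta plus TNF-alpha plus IFN-gamma mixture; protective hits raise ATP signal compared with cytokine alone wells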
# [4] = target: T2, Replicative DNA helicase DnaB (Mycobacterium tuberculosis, UniProt P9WMR3); assay: DnaB intein splicing inhibitors, dose response, biochemical, cell-free fluorescence (AID 449749); type: functional
# T2 sequence (P9WMR3 whole entry): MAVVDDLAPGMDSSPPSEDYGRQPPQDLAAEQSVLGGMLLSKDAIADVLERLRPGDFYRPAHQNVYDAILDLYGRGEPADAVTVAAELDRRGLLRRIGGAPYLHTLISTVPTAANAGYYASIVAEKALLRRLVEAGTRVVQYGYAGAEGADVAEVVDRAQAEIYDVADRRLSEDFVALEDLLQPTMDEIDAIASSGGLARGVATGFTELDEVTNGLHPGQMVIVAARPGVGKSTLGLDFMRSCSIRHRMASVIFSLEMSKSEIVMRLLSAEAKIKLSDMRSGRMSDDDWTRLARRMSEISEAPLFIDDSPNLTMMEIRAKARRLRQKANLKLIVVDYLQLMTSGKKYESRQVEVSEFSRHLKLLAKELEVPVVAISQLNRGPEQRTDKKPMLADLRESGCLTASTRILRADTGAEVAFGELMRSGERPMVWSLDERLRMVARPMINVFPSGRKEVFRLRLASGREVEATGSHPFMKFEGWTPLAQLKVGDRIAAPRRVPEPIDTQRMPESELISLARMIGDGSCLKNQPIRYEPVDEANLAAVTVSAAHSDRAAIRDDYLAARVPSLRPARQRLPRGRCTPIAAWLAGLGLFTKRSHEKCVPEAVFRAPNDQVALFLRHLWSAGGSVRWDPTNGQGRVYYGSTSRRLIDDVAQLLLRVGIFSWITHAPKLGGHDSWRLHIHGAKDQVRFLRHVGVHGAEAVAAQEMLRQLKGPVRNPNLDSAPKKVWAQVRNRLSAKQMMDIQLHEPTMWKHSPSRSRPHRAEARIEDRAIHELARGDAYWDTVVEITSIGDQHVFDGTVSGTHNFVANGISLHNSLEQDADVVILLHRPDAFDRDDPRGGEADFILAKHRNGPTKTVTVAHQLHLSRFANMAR
# Protein RecA = target: T3, Protein RecA (Mycobacterium tuberculosis, UniProt P9WHJ3); assay: Fluorescence Cell-Free Homogeneous Dose Retest to Identify Inhibitors of RecA-Intein Splicing Activity. [Related pubchem assays (depositor defined):AID2097, AID2223, AID489010, AID492950]; type: functional
# T3 sequence (P9WHJ3 whole entry): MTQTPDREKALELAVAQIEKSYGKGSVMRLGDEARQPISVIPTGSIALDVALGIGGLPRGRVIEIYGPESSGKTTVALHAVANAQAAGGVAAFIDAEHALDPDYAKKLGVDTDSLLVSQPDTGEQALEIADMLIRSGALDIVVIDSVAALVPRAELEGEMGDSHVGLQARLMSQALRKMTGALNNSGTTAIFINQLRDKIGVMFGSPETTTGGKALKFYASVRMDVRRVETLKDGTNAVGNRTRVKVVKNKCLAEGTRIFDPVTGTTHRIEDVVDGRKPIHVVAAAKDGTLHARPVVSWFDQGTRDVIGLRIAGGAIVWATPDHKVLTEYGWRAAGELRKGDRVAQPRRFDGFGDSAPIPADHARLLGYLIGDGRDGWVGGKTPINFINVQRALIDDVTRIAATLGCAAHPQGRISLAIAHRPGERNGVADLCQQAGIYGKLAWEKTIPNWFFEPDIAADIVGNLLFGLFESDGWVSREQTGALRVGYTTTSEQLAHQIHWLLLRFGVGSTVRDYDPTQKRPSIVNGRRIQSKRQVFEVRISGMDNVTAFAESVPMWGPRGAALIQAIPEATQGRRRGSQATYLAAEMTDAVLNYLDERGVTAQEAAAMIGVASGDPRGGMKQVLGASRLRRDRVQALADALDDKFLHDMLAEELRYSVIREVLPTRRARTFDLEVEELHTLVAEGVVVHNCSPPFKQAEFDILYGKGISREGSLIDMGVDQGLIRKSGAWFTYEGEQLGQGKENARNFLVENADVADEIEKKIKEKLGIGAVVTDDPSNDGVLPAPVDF
# Chain of Cytochrome P450 3A4 (P08684 whole entry): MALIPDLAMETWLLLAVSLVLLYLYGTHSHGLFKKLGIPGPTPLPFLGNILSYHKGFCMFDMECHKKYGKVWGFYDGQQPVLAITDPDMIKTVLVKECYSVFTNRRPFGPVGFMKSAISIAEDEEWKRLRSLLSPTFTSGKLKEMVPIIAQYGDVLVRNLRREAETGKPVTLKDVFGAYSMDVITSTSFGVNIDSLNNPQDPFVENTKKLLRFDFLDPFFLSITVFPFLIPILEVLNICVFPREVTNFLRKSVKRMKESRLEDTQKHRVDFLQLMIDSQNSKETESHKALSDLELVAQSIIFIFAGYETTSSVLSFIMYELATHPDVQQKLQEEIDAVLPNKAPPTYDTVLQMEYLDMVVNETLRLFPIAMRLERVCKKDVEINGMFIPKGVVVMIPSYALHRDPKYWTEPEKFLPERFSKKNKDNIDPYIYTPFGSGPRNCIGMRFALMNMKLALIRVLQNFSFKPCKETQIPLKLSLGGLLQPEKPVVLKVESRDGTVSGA
# Chain of Cytochrome P450 2C9 (P11712 whole entry): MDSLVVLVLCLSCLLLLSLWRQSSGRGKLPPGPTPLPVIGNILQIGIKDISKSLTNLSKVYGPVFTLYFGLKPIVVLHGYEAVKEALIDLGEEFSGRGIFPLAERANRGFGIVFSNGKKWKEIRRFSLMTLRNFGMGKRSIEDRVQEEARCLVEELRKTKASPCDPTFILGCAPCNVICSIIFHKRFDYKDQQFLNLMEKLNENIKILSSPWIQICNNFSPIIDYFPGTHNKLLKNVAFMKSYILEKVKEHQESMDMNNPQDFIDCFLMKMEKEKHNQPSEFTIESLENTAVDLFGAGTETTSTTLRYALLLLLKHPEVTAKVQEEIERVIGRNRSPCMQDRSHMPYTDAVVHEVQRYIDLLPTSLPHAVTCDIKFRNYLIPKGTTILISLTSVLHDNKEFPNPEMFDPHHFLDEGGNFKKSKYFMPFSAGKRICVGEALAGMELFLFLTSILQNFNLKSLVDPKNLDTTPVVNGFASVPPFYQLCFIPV
# Chain of Cytochrome P450 2D6 (P10635 whole entry): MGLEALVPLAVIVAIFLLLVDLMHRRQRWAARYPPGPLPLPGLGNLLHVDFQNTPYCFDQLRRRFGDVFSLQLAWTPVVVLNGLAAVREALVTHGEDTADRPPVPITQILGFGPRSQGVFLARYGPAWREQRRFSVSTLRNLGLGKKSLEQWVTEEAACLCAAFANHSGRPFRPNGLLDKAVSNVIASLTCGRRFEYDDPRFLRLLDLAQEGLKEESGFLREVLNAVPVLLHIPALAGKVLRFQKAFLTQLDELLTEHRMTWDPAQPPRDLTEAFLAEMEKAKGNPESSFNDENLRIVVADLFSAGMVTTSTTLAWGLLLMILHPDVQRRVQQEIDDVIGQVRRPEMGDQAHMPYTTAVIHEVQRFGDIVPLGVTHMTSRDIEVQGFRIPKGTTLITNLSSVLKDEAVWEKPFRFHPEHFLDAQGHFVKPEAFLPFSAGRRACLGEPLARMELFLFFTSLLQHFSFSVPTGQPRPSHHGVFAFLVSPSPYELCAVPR
# Chain of Cytochrome P450 2C19 (P33261 whole entry): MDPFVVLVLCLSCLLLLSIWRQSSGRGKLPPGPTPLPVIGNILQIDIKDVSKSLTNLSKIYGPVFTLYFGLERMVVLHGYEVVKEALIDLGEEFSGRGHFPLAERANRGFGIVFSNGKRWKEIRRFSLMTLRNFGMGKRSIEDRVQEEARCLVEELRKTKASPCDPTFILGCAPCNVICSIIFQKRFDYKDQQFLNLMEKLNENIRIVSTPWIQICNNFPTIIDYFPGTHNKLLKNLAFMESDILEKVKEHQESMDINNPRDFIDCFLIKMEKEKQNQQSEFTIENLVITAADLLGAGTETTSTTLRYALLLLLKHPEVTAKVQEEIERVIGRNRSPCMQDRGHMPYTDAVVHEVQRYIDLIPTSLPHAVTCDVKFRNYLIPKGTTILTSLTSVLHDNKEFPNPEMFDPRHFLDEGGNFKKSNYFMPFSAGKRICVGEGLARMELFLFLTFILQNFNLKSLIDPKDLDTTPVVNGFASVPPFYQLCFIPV
# Chain of Large T antigen (P03070 whole entry): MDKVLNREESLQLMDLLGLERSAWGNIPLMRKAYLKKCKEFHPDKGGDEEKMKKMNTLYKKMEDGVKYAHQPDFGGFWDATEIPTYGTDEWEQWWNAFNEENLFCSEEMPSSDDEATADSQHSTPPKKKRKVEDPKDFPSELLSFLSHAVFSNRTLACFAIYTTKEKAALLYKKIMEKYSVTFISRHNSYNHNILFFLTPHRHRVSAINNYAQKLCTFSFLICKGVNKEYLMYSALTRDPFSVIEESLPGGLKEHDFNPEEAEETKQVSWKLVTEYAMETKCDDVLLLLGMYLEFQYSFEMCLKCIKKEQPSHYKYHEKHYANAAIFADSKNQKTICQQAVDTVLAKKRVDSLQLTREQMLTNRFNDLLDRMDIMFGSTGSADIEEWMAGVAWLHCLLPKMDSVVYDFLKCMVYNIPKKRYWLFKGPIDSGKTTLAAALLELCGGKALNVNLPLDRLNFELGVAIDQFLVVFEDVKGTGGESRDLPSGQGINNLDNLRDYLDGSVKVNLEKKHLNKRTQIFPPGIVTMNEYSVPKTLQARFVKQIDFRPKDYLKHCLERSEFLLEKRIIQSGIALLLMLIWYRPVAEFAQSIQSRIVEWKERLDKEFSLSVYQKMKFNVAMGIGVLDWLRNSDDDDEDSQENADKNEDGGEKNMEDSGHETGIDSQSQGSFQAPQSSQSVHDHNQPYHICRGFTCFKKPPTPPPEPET
structure (smiles),measurement,setting,value
COc1ccc(N2CCC(CN=C(S)Nc3c(C)cccc3C)C2)cc1 (stereo not given),IC50,Large T antigen,14.6 µM (active)
same,EC50,[1],2.76 µM (active)
same,EC50,[2],> 60 µM (not active)
Cc1ccc(C(=O)NCCNC(=O)CN2CCOCC2)cc1,AC50,Cytochrome P450 2C19; read-out: AC50,0.708 µM (inconclusive)
same,AC50,Cytochrome P450 3A4,28.2 µM (inconclusive)
COc1cccc(Nc2ncc3nc(C)c(=O)n(-c4ccccc4)c3n2)c1,AC50,Cytochrome P450 2C19; read-out: AC50,25.1 µM (inconclusive)
same,AC50,Cytochrome P450 2C9,31.6 µM (inconclusive)
CCN1C(=O)C2(C(C(=O)c3cc4ccccc4o3)=C(O)C(=O)N2CCCN(C)C)c2ccccc21 (stereo not given),IC50,Large T antigen,52.4 µM (active)
O=C(Oc1ccccc1[N+](=O)[O-])c1cccnc1,AC50,Cytochrome P450 2C9,15.8 µM (inconclusive)
COc1ccc(C2=NCCn3nc4cc([N+](=O)[O-])ccc4c32)cc1,EC50,[3],> 195 µM (not active)
Cc1nc2ccccn2c1C(=O)CSc1ccccc1Cl,AC50,Cytochrome P450 2D6,25.1 µM (inconclusive)
same,AC50,Cytochrome P450 3A4,12.6 µM (inconclusive)
O=C(CSc1nnc(CCc2ccccc2)n1-c1ccc(Cl)cc1)c1ccccc1,EC50,[3],> 195 µM (not active)
Cc1ccc(NC(=O)CSCc2cc(=O)n3cc(C)sc3n2)c(C)c1,EC50,[3],> 195 µM (not active)
COc1cc(/C=N/NC(=O)CC#N)cc(Br)c1O,IC50,Large T antigen,9.57 µM (active)
Cn1c(=O)c(-c2cccs2)nc2cnc(N3CCNCC3)nc21,AC50,Cytochrome P450 3A4,25.1 µM (inconclusive)
same,AC50,Cytochrome P450 2C9,39.8 µM (inconclusive)
COC(=O)[C@@]1(Cc2ccc(OC)cc2)[C@H]2c3cc(C(=O)N(C)C)n(CCc4ccccn4)c3C[C@H]2CN1C(=O)c1ccccc1,AC50,Cytochrome P450 2C19; read-out: AC50,39.8 µM (inconclusive)
COc1ccc(OC)c(NC(S)=NCc2cccnc2)c1,EC50,[3],> 195 µM (not active)
C/C(=C/C(=O)NCc1ccccc1)C(=O)O,AC50,Cytochrome P450 2C19,inconclusive
same,AC50,Cytochrome P450 2C9,0.0398 µM (inconclusive)
COc1ccccc1CNC(=O)Cn1nnc(-c2ccncc2)n1,AC50,Cytochrome P450 2D6,2.24 µM (inconclusive)
same,AC50,Cytochrome P450 3A4,3.16 µM (inconclusive)
O=C(COc1cccnc1[N+](=O)[O-])Nc1cc(S(=O)(=O)N2CCCCC2)ccc1Cl,EC50,[3],> 195 µM (not active)
CCCOc1ccc(N2CC(C(=O)NC(C)C)CC2=O)cc1 (stereo not given),EC50,[3],> 195 µM (not active)
NC(=O)C1CCN(C(=O)OCc2ccccc2)CC1,AC50,Cytochrome P450 2C19; read-out: AC50,11.2 µM (inconclusive)
COc1ccc(NC(=O)Cn2cccc2)c(OC)c1,AC50,Cytochrome P450 2C9,7.08 µM (inconclusive)
O=C1/C(=C/c2ccncc2)SC(=S)N1Nc1ccccc1,IC50,Large T antigen,12.7 µM (active)
Cc1n[nH]c(Nc2ccc(O)cc2)c1[N+](=O)[O-],IC50,Large T antigen,7.06 µM (active)
CN1CCN(c2ncc3ncc(=O)n(CCc4ccccc4)c3n2)CC1,AC50,Cytochrome P450 2D6,20 µM (inconclusive)
same,AC50,Cytochrome P450 3A4,15.8 µM (inconclusive)
O=C1O[C@@H]([C@H](O)[C@H](O)[C@H](O)CO)[C@@H](O)[C@@H]1O,AC50,Cytochrome P450 2C19,inconclusive
CCC(=O)N(C)/C=C1\Sc2ccccc2C1=O,AC50,Cytochrome P450 3A4,14.1 µM (inconclusive)
same,AC50,Cytochrome P450 2C9,12.6 µM (inconclusive)
Cc1cnc(CNc2nc(-c3ccccc3C)nc3ccccc23)cn1,AC50,Cytochrome P450 2D6,39.8 µM (inconclusive)
same,AC50,Cytochrome P450 3A4,10 µM (inconclusive)
c1ccc(-c2n[nH]c(-c3ccccc3)c2-c2nc3ccccc3[nH]2)cc1,AC50,Cytochrome P450 2C19; read-out: AC50,22.4 µM (inconclusive)
c1ccc2c(CNC3CCCCC3)c[nH]c2c1,AC50,INS1,8.45 µM (active)
COc1cc(CNc2ccc(N3CCOCC3)cc2)ccc1OCC(=O)NC(C)(C)C,IC50,Large T antigen,4.16 µM (active)
Cc1cc(=O)oc(C)c1C(=O)NCCCN1CCN(c2ccc(F)cc2)CC1,AC50,Cytochrome P450 2D6,15.8 µM (inconclusive)
same,AC50,Cytochrome P450 2C9,15.8 µM (inconclusive)
Cc1ccc(C(=O)COC(=O)c2ccccc2N2C(=O)C3C4CCC(C4)C3C2=O)cc1C (stereo not given),AC50,Cytochrome P450 2C9,2 µM (inconclusive)
CC1(C)CC(=O)C(/C=N/CCN2CCN(C(=S)Nc3ccc(F)cc3)CC2)=C(O)C1,AC50,Cytochrome P450 3A4,25.1 µM (inconclusive)
same,AC50,Cytochrome P450 2C9,25.1 µM (inconclusive)
CC(C)C(NC(=O)C1CCCCC1)C(=O)NCc1ccccn1 (stereo not given),AC50,Cytochrome P450 3A4,15.8 µM (inconclusive)
CCNC(=O)C1CC(=O)OC12CCCCC2 (stereo not given),AC50,Cytochrome P450 2C9,25.1 µM (inconclusive)
CC[C@@H]1C/C=C\Cc2ccccc2[C@H](C(=O)C[C@@H](O)CC(C)=O)OC1=O,AC50,INS1,> 260 µM (inactive)
Cc1cccc(C(=O)NNC(=O)C2CCCO2)c1 (stereo not given),AC50,Cytochrome P450 2C19; read-out: AC50,5.01 µM (inconclusive)
Cc1ccnc(NC(=O)c2cccc(NC(=O)COc3ccccc3)c2)c1,AC50,Cytochrome P450 2D6,17.8 µM (inconclusive)
same,AC50,Cytochrome P450 2C9,4.47 µM (inconclusive)
O=C(c1ccccc1)N1CCSC1=S,AC50,Cytochrome P450 2C19; read-out: AC50,25.1 µM (inconclusive)
Fc1ccc(Oc2nc(-c3ccccn3)nc3ccccc23)cc1,AC50,INS1,4.84 µM (active)
O=Cc1sc(=O)n(Cc2cccc(C(=O)O)c2)c1Cl,IC50,Large T antigen,18.6 µM (active)
same,AC50,[4],16.5 µM (active)
same,EC50,Protein RecA,9.42 µM (active)
COc1ccccc1CN1CC2(CCN(C(=O)c3cnccn3)CC2)C1,AC50,Cytochrome P450 3A4,20 µM (inconclusive)
COC(=O)[C@H](Cc1ccccc1)N(Cc1ccccc1)S(=O)(=O)N(Cc1ccccc1)[C@@H](Cc1ccccc1)C(=O)OC,AC50,INS1,4.51 µM (active)
COc1ccc(/C=N\NC(=O)C2C(=O)NCC2c2ccccc2)cc1O (stereo not given),AC50,Cytochrome P450 2D6,7.94 µM (inconclusive)
same,AC50,Cytochrome P450 3A4,39.8 µM (inconclusive)
same,AC50,Cytochrome P450 2C9,35.5 µM (inconclusive)
